{"source": "patent US9192599B2", "about": "“Treating inflammation and inflammatory pain in mucosa using mucosal prolonged release bioadhesive therapeutic carriers” (Onxeo S.A., priority 2008, dated 2015)", "key": {"[1]": {"test_system": "mucositis in hamsters", "settings": "for mucositis severity, daily scores vs vehicle control (Mann-Whitney rank sum): day −1 to 20; for average weight gain, % of starting weight: days −1 to 20, topical; for animal days with mucositis score of 3 or higher / peak mean mucositis score: days −1 to 20; for peak mean mucositis score: peak on day 16, scale 0-5; for course and severity of mucositis, comparison of schedules: day −1 to 20, topical", "method": "Thirty-two (32) male Syrian Golden Hamsters were randomly assigned to four (4) equally-sized groups. […] All agents were administered topically. On study day 0, each hamster was irradiated with a single dose of 40 Gy directed to the left buccal cheek pouch. Animals were subsequently weighed and observed daily. Beginning on day 6 and continuing on alternate days for the duration of the study, images of the left cheek pouch mucosa was obtained. At the conclusion of the in-life phase of the study, the images were scored for mucositis severity using a validated scale and the number of days of ulcerative mucositis was assessed using a Chi-squared test of scores of ≧3 throughout the study. The individual daily group scores were evaluated using a rank sum test.\nMucositis was induced using a standardized acute radiation protocol. A single dose of radiation (40 Gy/dose) was administered to all animals on day 0. Radiation was generated with a 160 kilovolt potential (15-ma) source at a focal distance of 40 cm, hardened with a 0.35 mm Al filtration system. Irradiation targeted the left buccal pouch mucosa at a rate of 2.5 Gy/minute. Prior to irradiation, animals were anesthetized with an intraperitoneal injection of Ketamine (160 mg/ml) and Xylazine (8 mg/ml). The left buccal pouch was everted, fixed and isolated using a lead shield.\nFor the evaluation of mucositis, the animals were anesthetized with an Inhalation anesthetic, and the left pouch everted. Mucositis was scored visually by comparison to a validated photographic scale, ranging from 0 for normal, to 5 for severe ulceration (clinical scoring). In descriptive terms, this scale is defined in Table 2:\nA score of 1-2 is considered to represent a mild stage of the disease, whereas a score of 3-5 is considered to indicate moderate to severe mucositis. Following visual scoring, a photograph was taken of each animal's mucosa using a standardized technique. At the conclusion of the experiment, all films were developed and the photographs randomly numbered. At least two independent trained observers graded the photographs in blinded fashion using the above-described scale (blinded scoring).\nTest materials were given by topical administration directed to the left cheek pouch daily as detailed in Table 3.\nto day 20. Animals in Groups 1, 3 and 4 were dosed at 6 am, 11 am, 4 pm and 9 pm. Animals in Group 2 were dosed at 6 am.\nMucositis was evaluated clinically starting on Day 6, and continuing on alternate days until day 28."}, "[2]": {"test_system": "TNFα", "experiment": "TNFα quantification by ELISA in human oral mucosa organotypic culture stimulated by substance P", "assay_type": "cell-based", "method": "Biopsy samples of clinically healthy non keratinised human oral mucosa were obtained from patients undergoing surgery.\nSmall biopsies (explant size: 5 mm^2 surface and 3 mm thickness and about 15 to 20 mg weight) were transferred onto permeable polycarbonate membrane transwells (12 mm diameter, 12 μm pore size) in a well of a 12 well plate (as previously described Boisnic S. et al., 2003 and 2006) containing 700 μl of defined medium (DMEM, antibiotics, hormones, pituitary extract, SVF). For each donor, the gingival biopsy was cut to obtain the same weight so that to have comparison between different conditions tested. Explants were maintained at the interface between air and medium: the oral mucosa epithelium was in contact with air and the chorion was exposed to the media by diffusion through the porous polycarbonate membrane.\nCohesion between gingival fragment and insert was obtained with a polyvinylsiloxane addition type silicone elastomer seal (Coltene® president) in such a way that no gingival retraction or lateral passage of the product towards the dermis was possible. The culture was set up for 2 days in a humidified atmosphere containing 5% CO2 at 37° C.\nThe stimulation of the experimental oral mucosa inflammatory process was done by the neuropeptide substance P (SP) (Boisnic et al., 2003).\nThe neuropetide SP ([SP]=10 μM) was added (or not) to the culture medium in order to simulate the mucositis pro-inflammatory process. SP was in contact with the mucosal chorion after diffusion through the porous membrane.\nThe cell culture lasted two days (“D0” for the first day and “D1” for the second day).\nTherefore the clonidine treatment was done before and during substance P stimulation.\nRemoved D1 culture medium in each well; aliquot it in 7 samples of 100 μl and store at −80° C. for cytokines release analysis.\nAt the end of each culture all the human oral mucosa explants were weighed (cytokines release expressed as pg/mg of cultured oral mucosa explants).\nMean values and standard deviations were calculated for each parameter. The statistical significance of changes recorded in the parameters were determined with unpaired Mann-Whitney U test (p<0.05)."}}, "note": "Several values for one entry are separate records, joined by “and”; a condition that tells them apart may be missing. Equal values may be shown once. Read-outs that look alike come from different tables or passages of the source."}
{"molecule": "Clc1cccc(Cl)c1NC1=NCCN1", "note": "[clonidine, N-(2,6-dichlorophenyl)-4,5-dihydro-1H-imidazol-2-amine]", "values": [{"measurement": "mucositis severity, daily scores vs vehicle control (Mann-Whitney rank sum)", "setting": "[1]; 12.5 μg/kg 4 times daily, days 20, 22 and 24", "result": "significantly lower mucositis scores than the vehicle controls"}, {"measurement": "mucositis severity, daily scores vs vehicle control (Mann-Whitney rank sum)", "setting": "[1]; 12.5 μg/kg 4 times daily, days 20, 22 and 24, listed as Clonidine", "result": "significantly reduced the severity of mucositis"}, {"measurement": "average weight gain, % of starting weight", "setting": "[1]; 12.5 μg/kg 4 times daily", "result": 46.1, "unit": "%"}, {"measurement": "animal days with mucositis score of 3 or higher", "setting": "[1]; 12.5 μg/kg 4 times daily, p=0.047 vs vehicle", "result": 26.0, "unit": "%"}, {"measurement": "peak mean mucositis score", "setting": "[1]; 12.5 μg/kg 4 times daily", "result": 3.0}, {"measurement": "mucositis severity, daily scores vs vehicle control (Mann-Whitney rank sum)", "setting": "[1]; 25 μg/kg 4 times daily, days 6 and 14", "result": "significantly lower mucositis scores than the vehicle controls"}, {"measurement": "mucositis severity, daily scores vs vehicle control (Mann-Whitney rank sum)", "setting": "[1]; 25 μg/kg 4 times daily, days 6 and 14, listed as Clonidine", "result": "significantly reduced the severity of mucositis"}, {"measurement": "average weight gain, % of starting weight", "setting": "[1]; 25 μg/kg 4 times daily", "result": 45.0, "unit": "%"}, {"measurement": "animal days with mucositis score of 3 or higher", "setting": "[1]; 25 μg/kg 4 times daily, p=0.125 vs vehicle", "result": 28.1, "unit": "%"}, {"measurement": "peak mean mucositis score", "setting": "[1]; 25 μg/kg 4 times daily", "result": 3.1}, {"measurement": "course and severity of mucositis, comparison of schedules", "setting": "[1]; 100 μg/kg once daily", "result": "superior to the other concentrations and schedules tested"}, {"measurement": "course and severity of mucositis, comparison of schedules", "setting": "[1]; 100 μg/kg once daily, listed as Clonidine", "result": "favorably altered the course and severity of mucositis"}, {"measurement": "mucositis severity, daily scores vs vehicle control (Mann-Whitney rank sum)", "setting": "[1]; 100 μg/kg once daily, days 16, 20 and 22", "result": "significantly different than the vehicle control group"}, {"measurement": "mucositis severity, daily scores vs vehicle control (Mann-Whitney rank sum)", "setting": "[1]; 100 μg/kg once daily, days 16, 20 and 22, listed as Clonidine", "result": "significantly reduced the severity of mucositis"}, {"measurement": "average weight gain, % of starting weight", "setting": "[1]; 100 μg/kg once daily", "result": 51.3, "unit": "%"}, {"measurement": "animal days with mucositis score of 3 or higher", "setting": "[1]; 100 μg/kg once daily, p=0.003 vs vehicle", "result": 21.9, "unit": "%"}, {"measurement": "peak mean mucositis score", "setting": "[1]; 100 μg/kg once daily", "result": 2.8}, {"measurement": "severity of mucositis based on mucositis score area under the curve", "setting": "[1]; all three treatment groups, p=0.0007", "result": "severity of mucositis was reduced"}, {"measurement": "adverse reaction to treatment", "setting": "[1]; any of the doses tested", "result": "no evidence of any significant adverse reaction"}, {"measurement": "anti-inflammatory effect on gingiva stimulated by SP", "setting": "[2]; doses 0.009, 0.03, 0.09 and 0.3 μg/ml", "result": "No significant anti-inflammatory effect"}, {"measurement": "TNFα quantification by ELISA", "setting": "[2]; gingiva + SP, 0.009 μg/ml clonidine", "result": "1.14 ± 0.7", "unit": "pg/mg"}, {"measurement": "TNFα quantification by ELISA", "setting": "[2]; gingiva + SP, 0.03 μg/ml clonidine", "result": "1.02 ± 0.4", "unit": "pg/mg"}, {"measurement": "TNFα quantification by ELISA", "setting": "[2]; gingiva + SP, 0.09 μg/ml clonidine", "result": "1.08 ± 0.29", "unit": "pg/mg"}, {"measurement": "TNFα quantification by ELISA", "setting": "[2]; gingiva + SP, 0.3 μg/ml clonidine", "result": "0.86 ± 0.4", "unit": "pg/mg"}, {"measurement": "TNFα quantification by ELISA", "setting": "[2]; gingiva + SP, 0.9 μg/ml clonidine", "result": "0.74 pg/mg and 0.74 ± 0.36 (* p = 0.0106) pg/mg"}, {"measurement": "TNFα quantification by ELISA", "setting": "[2]; gingiva + SP, 3 μg/ml clonidine", "result": "0.67 pg/mg and 0.67 ± 0.27 (* p = 0.0056) pg/mg"}, {"measurement": "TNFα quantification by ELISA", "setting": "[2]; gingiva without SP, 3 μg/ml clonidine", "result": "0.83 ± 0.40", "unit": "pg/mg"}, {"measurement": "TNFα quantification by ELISA", "setting": "[2]; gingiva without SP, 3 μg/ml clonidine, listed as Clonidine", "result": 0.83, "unit": "pg/mg"}]}
{"molecule": "SP: neuropeptide substance P added to culture medium to simulate the mucositis pro-inflammatory process", "values": [{"measurement": "TNFα quantification by ELISA", "setting": "[2]; gingiva + SP 10 μM, no clonidine (positive control)", "result": "1.7 ± 1.09 (# p = 0.0056) pg/mg"}, {"measurement": "TNFα quantification by ELISA", "setting": "[2]; gingiva + SP 10 μM, no clonidine (positive control), listed as substance P", "result": 1.7, "unit": "pg/mg"}]}
